# Results reported in patent US12227488B2, “Small molecule degraders of Helios and methods of use” (DANA-FARBER CANCER INSTITUTE, INC., priority 2018, dated 2025).
# Columns and labels:
# CRBN and Helios (IKZF2) = biological target: T1, CRBN and Helios (IKZF2) (Homo sapiens, UniProt Q96SW2+Q9UKS7); experiment: TR-FRET dimerization assay (CRBN-IKZF2 ternary complex formation); assay type: binding; settings: n=1
# T1 construct: His (N); Strep (N)
# Summary of the method: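 BODIPY-labeled DDB1ΔB-CRBN and in vitro biotinylated IKZF2 were treated with increasing compound concentrations plus tracer Terbium-Streptavidin and incubated 15 min at rt. Recruitment was quantified as the 520/490 nm TR-FRET ratio; values are single measurements (n=1), each averaged from at least three technical replicates.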
# IKZF2 = experiment: Cellular degradation assay, eGFP-IKZF2Δ fusion with mCherry reporter in Flp-In 293 cells; assay type: cell-based; settings: 5 h incubation, n=1
# Summary of the method: (§1)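 Flp-In 293 cells stably expressing eGFP-tagged degron fusions with P2A-mCherry reporter were treated with compound titrations (0.5% DMSO) for 5 hours. Imaging quantified GFP-positive/mCherry-positive cell fraction per well; DC50 at 5 h from nonlinear variable-slope fit.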
# IKZF1 = biological target: T2, IKZF1 (Homo sapiens, UniProt Q13422); experiment: Cellular degradation assay, eGFP-IKZF1Δ fusion with mCherry reporter in Flp-In 293 cells; assay type: cell-based; settings: 5 h incubation, n=1
# T2 construct: expressed in transfected cells; host or cells: Flp-In 293
# T2 sequence (Q13422 83-213 isoform Q13422-7 limits assumed): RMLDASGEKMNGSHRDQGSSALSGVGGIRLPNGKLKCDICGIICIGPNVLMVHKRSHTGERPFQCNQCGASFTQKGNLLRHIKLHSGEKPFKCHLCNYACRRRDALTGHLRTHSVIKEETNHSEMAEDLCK
# T2 sequence (Q96SW2 whole entry partner, the tested form may be a part): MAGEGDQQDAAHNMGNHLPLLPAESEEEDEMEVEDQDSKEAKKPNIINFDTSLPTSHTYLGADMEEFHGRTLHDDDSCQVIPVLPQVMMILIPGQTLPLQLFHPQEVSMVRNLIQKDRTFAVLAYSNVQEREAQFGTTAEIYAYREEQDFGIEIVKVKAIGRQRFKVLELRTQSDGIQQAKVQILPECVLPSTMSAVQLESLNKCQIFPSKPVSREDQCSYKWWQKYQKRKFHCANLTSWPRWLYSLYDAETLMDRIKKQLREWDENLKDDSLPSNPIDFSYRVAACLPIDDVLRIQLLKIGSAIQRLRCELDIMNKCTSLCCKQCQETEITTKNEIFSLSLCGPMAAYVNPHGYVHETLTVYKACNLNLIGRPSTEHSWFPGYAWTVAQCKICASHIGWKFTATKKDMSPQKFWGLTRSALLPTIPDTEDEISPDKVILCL
# T2 sequence (Q16531 2-1140 partner limits assumed): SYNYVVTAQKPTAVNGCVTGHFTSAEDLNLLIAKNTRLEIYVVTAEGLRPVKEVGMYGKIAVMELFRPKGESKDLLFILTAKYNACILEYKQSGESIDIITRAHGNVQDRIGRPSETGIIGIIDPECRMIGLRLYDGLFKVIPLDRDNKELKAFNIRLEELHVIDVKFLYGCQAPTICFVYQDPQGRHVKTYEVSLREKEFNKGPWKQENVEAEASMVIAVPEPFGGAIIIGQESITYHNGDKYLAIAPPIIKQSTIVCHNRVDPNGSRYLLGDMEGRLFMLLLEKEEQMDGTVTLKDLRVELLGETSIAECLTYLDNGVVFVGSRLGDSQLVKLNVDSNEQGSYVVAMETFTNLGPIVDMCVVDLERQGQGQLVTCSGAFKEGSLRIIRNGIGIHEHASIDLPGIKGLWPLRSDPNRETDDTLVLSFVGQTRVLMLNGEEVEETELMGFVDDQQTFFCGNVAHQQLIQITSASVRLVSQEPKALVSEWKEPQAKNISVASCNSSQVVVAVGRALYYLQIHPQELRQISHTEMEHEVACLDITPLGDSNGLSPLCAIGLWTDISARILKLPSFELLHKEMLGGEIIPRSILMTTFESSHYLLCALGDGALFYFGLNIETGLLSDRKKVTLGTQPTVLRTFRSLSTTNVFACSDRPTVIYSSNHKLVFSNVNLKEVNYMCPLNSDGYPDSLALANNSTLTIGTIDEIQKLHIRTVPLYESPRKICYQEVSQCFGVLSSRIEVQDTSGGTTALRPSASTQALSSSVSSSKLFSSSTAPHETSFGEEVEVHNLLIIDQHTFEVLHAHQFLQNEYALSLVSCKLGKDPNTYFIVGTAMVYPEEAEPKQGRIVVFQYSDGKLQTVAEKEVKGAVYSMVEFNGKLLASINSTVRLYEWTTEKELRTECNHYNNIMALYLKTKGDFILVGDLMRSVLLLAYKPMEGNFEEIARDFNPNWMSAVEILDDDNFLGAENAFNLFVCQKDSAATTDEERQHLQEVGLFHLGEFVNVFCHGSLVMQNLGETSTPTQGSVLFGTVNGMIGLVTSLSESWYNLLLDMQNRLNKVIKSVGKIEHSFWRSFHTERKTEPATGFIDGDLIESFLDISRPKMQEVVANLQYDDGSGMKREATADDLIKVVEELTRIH
# Summary of the method: as §1
# SALL4 ZNF1-2 = biological target: T3, SALL4 ZNF1-2 (Homo sapiens, UniProt Q96SW2+Q9UJQ4); experiment: Cellular degradation assay, eGFP-SALL4 ZnF1-2 fusion with mCherry reporter in Flp-In 293 cells; assay type: cell-based; settings: 5 h incubation, n=1
# T3 construct: IKZF1Δ, IKZF2Δ, GSPT1 and SALL4 ZnF1-2 were subcloned; expressed in transfected cells; host or cells: Flp-In 293
# T3 sequence (Q9UJQ4 378-438 limits assumed): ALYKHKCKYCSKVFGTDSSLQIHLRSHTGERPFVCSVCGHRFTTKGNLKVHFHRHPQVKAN
# T3 sequence (Q96SW2 whole entry, the tested form may be a part): as the sequence (Q96SW2 whole entry partner, the tested form may be a part) above
# T3 sequence (Q16531 whole entry partner, the tested form may be a part): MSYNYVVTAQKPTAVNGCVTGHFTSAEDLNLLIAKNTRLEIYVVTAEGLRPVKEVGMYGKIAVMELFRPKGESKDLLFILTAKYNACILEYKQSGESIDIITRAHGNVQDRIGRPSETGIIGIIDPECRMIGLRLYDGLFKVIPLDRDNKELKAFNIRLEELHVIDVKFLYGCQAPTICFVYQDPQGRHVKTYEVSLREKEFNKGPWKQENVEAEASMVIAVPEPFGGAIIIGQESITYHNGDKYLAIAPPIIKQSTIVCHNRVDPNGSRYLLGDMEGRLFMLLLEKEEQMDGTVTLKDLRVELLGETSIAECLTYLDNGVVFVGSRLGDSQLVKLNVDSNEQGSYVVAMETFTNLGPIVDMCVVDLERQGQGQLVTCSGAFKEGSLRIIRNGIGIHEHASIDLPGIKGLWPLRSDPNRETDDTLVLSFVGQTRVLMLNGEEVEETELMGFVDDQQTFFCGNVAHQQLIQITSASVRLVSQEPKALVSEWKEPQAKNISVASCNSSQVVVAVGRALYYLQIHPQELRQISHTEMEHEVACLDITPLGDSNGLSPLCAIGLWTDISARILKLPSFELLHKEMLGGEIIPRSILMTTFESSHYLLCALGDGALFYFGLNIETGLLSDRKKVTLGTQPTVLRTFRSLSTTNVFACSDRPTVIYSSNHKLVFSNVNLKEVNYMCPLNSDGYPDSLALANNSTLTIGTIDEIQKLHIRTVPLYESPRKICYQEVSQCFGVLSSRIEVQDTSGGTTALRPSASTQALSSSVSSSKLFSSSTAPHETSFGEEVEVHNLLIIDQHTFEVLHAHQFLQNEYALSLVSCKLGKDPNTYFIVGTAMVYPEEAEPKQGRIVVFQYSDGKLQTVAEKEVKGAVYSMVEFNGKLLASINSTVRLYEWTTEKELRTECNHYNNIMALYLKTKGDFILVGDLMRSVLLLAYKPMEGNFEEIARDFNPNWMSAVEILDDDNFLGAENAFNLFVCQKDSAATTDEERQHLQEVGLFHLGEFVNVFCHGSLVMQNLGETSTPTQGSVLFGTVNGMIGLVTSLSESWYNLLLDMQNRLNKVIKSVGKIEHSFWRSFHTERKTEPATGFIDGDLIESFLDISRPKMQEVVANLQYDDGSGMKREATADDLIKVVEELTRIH
# Procedure: IKZF1Δ, IKZF2Δ, GSPT1 and SALL4 ZnF1-2 were subcloned into mammalian pcDNA5/FRT Vector (Ampicillin and Hygromycin B resistant) modified to contain MCS-eGFP-P2A-mCherry. Stable cell lines expressing eGFP-protein fusion and mCherry reporter were generated using Flp-In™ 293 system. Plasmid (0.3 μg) and pOG44 (4.7 μg) DNA were preincubated in 100 μL of Opti-MEM® I (Gibco®, Life Technologies™) media containing 0.05 mg/mL Lipofectamine® 2000 (Invitrogen™) for 20 min and added to Flp-In™ 293 cells containing 1.9 ml of DMEM media (Gibco®, Life Technologies™) per well in a 6-well plate format (Falcon, 353046). Cells were propagated after 48 h and transferred into a 10 cm^2 plate (Corning, 430165) in DMEM media containing 50 μg/mL of Hygromycin B (REF 10687010, Invitrogen™) as a selection marker. Following 2-3 passage cycle, FACS (FACSAria™ II, BD) was used to enrich for cells expressing eGFP and mCherry. Cells stably expressing the IKZF1Δ, IKZF2Δ, GSPT1 or SALL4 Znf1-2 GFP fusions with mCherry reporter were seeded at 30-50% confluency in 384-well plates with 50 μL FluoroBrite™ DMEM media (Thermo Fisher Scientific, A18967) containing 10% FBS per well a day before compound treatment. Compound titrations were dispensed using a D300e Digital Dispenser (HP), normalized to 0.5% DMSO, and incubated with cells for 5 hours. The assay plate was imaged immediately using an Acumen® High Content Imager (TTP Labtech) with 488 nm and 561 nm lasers in […] grid per well format.
# The resulting images were analyzed using CellProfiler™. A series of image analysis steps (‘image analysis pipeline’) was constructed. First, the red and green channels were aligned and cropped to target the middle of each well (to avoid analysis of heavily clumped cells at the edges), and a background illumination function was calculated for both red and green channels of each well individually and subtracted to correct for illumination variations across the 384-well plate from various sources of error. An additional step was then applied to the green channel to suppress the analysis of large auto fluorescent artifacts and enhance the analysis of cell specific fluorescence by way of selecting for objects under a given size, 30 A.U., and with a given shape, speckles. mCherry-positive cells were then identified in the red channel filtering for objects between 8-60 pixels in diameter and using intensity to distinguish between clumped objects. The green channel was then segmented into GFP positive and negative areas and objects were labeled as GFP positive if at least 40% of it overlapped with a GFP positive area. The fraction of GFP-positive cells/mCherry-positive cells in each well was then calculated, and the green and red images were rescaled for visualization.
# GSPT1 = GSPT1 (Homo sapiens, UniProt P15170+Q96SW2); experiment: Cellular degradation assay, eGFP-GSPT1 fusion with mCherry reporter in Flp-In 293 cells; assay type: cell-based; parameters: expressed in transfected cells; host or cells: Flp-In 293; settings: 5 h incubation, n=1
# Chain of GSPT1 (P15170 whole entry, the tested form may be a part): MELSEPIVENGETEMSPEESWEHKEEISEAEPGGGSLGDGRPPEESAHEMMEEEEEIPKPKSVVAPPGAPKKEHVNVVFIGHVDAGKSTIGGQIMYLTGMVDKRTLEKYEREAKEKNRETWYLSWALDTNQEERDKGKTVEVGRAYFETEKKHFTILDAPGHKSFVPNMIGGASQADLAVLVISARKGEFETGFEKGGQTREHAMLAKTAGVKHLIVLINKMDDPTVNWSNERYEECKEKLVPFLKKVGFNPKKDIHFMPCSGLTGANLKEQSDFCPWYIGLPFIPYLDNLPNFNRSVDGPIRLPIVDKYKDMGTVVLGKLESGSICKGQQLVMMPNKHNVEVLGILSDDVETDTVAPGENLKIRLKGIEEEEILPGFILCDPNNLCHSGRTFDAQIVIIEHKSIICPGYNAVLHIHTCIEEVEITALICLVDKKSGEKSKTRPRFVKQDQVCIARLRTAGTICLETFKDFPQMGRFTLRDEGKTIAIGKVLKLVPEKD
# Chain of GSPT1 (Q96SW2 whole entry, the tested form may be a part): as the sequence (Q96SW2 whole entry partner, the tested form may be a part) above
# Chain of GSPT1 (Q16531 whole entry partner, the tested form may be a part): as the sequence (Q16531 whole entry partner, the tested form may be a part) above
# Summary of the method: as §1
# [1] = compound concentration 6.6667E−05
# [2] = compound concentration 6.6667E−06
# [3] = compound concentration 6.6667E−07 (667 nM)
# [4] = compound concentration 2.00E−05
# [5] = compound concentration 2.00E−06
# [6] = compound concentration 2.00E−07
# T1 sequence (Q96SW2 whole entry): as the sequence (Q96SW2 whole entry partner, the tested form may be a part) above
# T1 sequence (Q9UKS7 whole entry): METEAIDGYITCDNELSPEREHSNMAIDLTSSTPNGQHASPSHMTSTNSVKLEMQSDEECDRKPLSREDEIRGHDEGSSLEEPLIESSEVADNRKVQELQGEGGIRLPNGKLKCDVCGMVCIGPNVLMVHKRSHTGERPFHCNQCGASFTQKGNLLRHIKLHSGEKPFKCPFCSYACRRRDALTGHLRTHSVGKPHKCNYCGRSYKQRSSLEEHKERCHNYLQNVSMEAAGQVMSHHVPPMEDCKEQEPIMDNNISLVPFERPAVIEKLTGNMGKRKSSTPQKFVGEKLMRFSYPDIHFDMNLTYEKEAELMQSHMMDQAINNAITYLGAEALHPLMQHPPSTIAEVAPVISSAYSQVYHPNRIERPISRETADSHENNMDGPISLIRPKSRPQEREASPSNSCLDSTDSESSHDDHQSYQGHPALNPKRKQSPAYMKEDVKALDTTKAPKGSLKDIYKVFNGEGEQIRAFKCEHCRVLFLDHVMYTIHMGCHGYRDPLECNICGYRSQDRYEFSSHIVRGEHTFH
SMILES,TR-FRET-IKZF2 (Normalized to CC-885) (CRBN and Helios (IKZF2); [1]),TR-FRET-IKZF2 (Normalized to CC-885) (CRBN and Helios (IKZF2); [2]),TR-FRET-IKZF2 (Normalized to CC-885) (CRBN and Helios (IKZF2); [3]),IKZF2 GFP/RFP Relative Abundance (IKZF2; [4]),IKZF2 GFP/RFP Relative Abundance (IKZF2; [5]),IKZF2 GFP/RFP Relative Abundance (IKZF2; [6]),IKZF1 GFP/RFP Relative Abundance (IKZF1; [4]),IKZF1 GFP/RFP Relative Abundance (IKZF1; [5]),IKZF1 GFP/RFP Relative Abundance (IKZF1; [6]),SALL4 ZNF1-2 GFP/RFP Relative Abundance (SALL4 ZNF1-2; [4]),SALL4 ZNF1-2 GFP/RFP Relative Abundance (SALL4 ZNF1-2; [5]),SALL4 ZNF1-2 GFP/RFP Relative Abundance (SALL4 ZNF1-2; [6]),GSPT1 GFP/RFP Relative Abundance (GSPT1; [4]),GSPT1 GFP/RFP Relative Abundance (GSPT1; [5]),GSPT1 GFP/RFP Relative Abundance (GSPT1; [6])
"O=C1CCC(N2C(=O)C=C(Nc3ccc(Cl)cc3)C2=O)C(=O)N1 (stereo not drawn) [Compound 25, 3-(3-((4-chlorophenyl)amino)-2,5-dioxo-2,5-dihydro-1H-pyrrol-1-yl)piperidine-2,6-dione]",0.339,0.282,0.230,0.966,0.978,0.955,0.258,0.298,0.341,0.831,0.897,0.887,1.019,1.233,1.201
"Cc1ccc(NC(=O)NCCCNC2=CC(=O)N(C3CCC(=O)NC3=O)C2=O)cc1Cl (stereo not drawn) [Compound 47, 1-(3-chloro-4-methylphenyl)-3-(3-((1-(2,6-dioxopiperidin-3-yl)-2,5-dioxo-2,5-dihydro-1H-pyrrol-3-yl)amino)propyl)urea]",0.288,0.230,0.191,1.019,1.051,0.995,0.312,0.298,0.326,1.060,1.039,1.010,0.034,0.041,0.036
"O=C1CCC(N2C(=O)C=C(Nc3cccc(-c4cc[nH]n4)c3)C2=O)C(=O)N1 (stereo not drawn) [Compound 31, 3-(3-((3-(1H-pyrazol-3-yl)phenyl)amino)-2,5-dioxo-2,5-dihydro-1H-pyrrol-1-yl)piperidine-2,6-dione]",0.628,0.521,0.434,0.494,0.638,0.766,0.254,0.290,0.399,0.755,0.626,0.713,0.666,1.197,1.240
"Cc1ccc(NC2=CC(=O)N(C3CCC(=O)NC3=O)C2=O)cc1C#N (stereo not drawn) [Compound 5, 5-((1-(2,6-dioxopiperidin-3-yl)-2,5-dioxo-2,5-dihydro-1H-pyrrol-3-yl)amino)-2-methylbenzonitrile]",0.376,0.296,0.187,0.930,1.000,1.020,0.395,0.478,0.650,1.008,0.946,0.992,0.714,0.843,1.050
"O=C1CCC(N2C(=O)C=C(Nc3ccc(-c4ccccc4)cc3)C2=O)C(=O)N1 (stereo not drawn) [Compound 38, 3-(3-([1,1′-biphenyl]-4-ylamino)-2,5-dioxo-2,5-dihydro-1H-pyrrol-1-yl)piperidine-2,6-dione]",0.328,0.266,0.210,0.885,1.002,0.977,0.728,0.663,0.621,1.005,0.887,0.742,1.174,1.216,0.870
"CN(C1=CC(=O)N(C2CCC(=O)NC2=O)C1=O)c1ccccc1 (stereo not drawn) [Compound 28, 3-(3-(methyl(phenyl)amino)-2,5-dioxo-2,5-dihydro-1H-pyrrol-1-yl)piperidine-2,6-dione]",0.072,0.050,0.053,1.006,1.011,1.064,0.978,0.996,1.029,0.969,0.936,0.946,1.001,0.917,0.805
"O=C1CCC(N2C(=O)C=C(Nc3cnc4ccccc4c3)C2=O)C(=O)N1 (stereo not drawn) [Compound 27, 3-(2,5-dioxo-3-(quinolin-3-ylamino)-2,5-dihydro-1H-pyrrol-1-yl)piperidine-2,6-dione]",0.137,0.105,0.084,1.004,0.990,0.931,0.701,0.776,0.801,1.026,1.005,0.913,0.881,1.083,0.987
"Cc1cc(NC2=CC(=O)N(C3CCC(=O)NC3=O)C2=O)ccc1Cl (stereo not drawn) [Compound 4, 3-(3-((4-chloro-3-methylphenyl)amino)-2,5-dioxo-2,5-dihydro-1H-pyrrol-1-yl)piperidine-2,6-dione]",0.485,0.411,0.270,0.925,1.028,1.002,0.314,0.433,0.550,0.862,0.850,0.903,0.922,0.904,0.750
